Several values for one entry are separate records, joined by “and”; a condition that tells them apart may be missing. Equal entries are not always repeated. Where two headings read alike, the source gives them in different places.
Tests used:
[1] = system: P. berghei exo-erythrocytic forms; test: P. berghei-Luc liver stage assay; assay type: cell-based; conditions: for Selectivity index (SI) = (mammalian cell IC50)/(Pb EEF IC50): HepG2 vs Pb EEF; for IC50: Plasmodium berghei, 48 h, read-out: Pb EEF IC50
[2] = system: 3D7 line of P. falciparum; test: P. falciparum asexual intraerythrocytic growth inhibition; assay type: cell-based; conditions: for Selectivity index (SI) = (mammalian cell IC50)/(P. falciparum IC50): HepG2 vs Pf3D7
human HDAC1 (hHDAC1) = human HDAC1 (hHDAC1) (Homo sapiens, UniProt Q13547); test: In vitro testing on hHDAC1
HepG2 cells = test: HepG2 cytotoxicity bioluminescence assay; assay type: cell-based; conditions: Homo sapiens, HepG2, 48 h, read-out: IC50 (HepG2)
human HDAC6 (hHDAC6) = target: T1, human HDAC6 (hHDAC6) (Homo sapiens, UniProt Q9UBN7); test: In vitro testing on hHDAC6
T1 sequence (Q9UBN7 1-1215): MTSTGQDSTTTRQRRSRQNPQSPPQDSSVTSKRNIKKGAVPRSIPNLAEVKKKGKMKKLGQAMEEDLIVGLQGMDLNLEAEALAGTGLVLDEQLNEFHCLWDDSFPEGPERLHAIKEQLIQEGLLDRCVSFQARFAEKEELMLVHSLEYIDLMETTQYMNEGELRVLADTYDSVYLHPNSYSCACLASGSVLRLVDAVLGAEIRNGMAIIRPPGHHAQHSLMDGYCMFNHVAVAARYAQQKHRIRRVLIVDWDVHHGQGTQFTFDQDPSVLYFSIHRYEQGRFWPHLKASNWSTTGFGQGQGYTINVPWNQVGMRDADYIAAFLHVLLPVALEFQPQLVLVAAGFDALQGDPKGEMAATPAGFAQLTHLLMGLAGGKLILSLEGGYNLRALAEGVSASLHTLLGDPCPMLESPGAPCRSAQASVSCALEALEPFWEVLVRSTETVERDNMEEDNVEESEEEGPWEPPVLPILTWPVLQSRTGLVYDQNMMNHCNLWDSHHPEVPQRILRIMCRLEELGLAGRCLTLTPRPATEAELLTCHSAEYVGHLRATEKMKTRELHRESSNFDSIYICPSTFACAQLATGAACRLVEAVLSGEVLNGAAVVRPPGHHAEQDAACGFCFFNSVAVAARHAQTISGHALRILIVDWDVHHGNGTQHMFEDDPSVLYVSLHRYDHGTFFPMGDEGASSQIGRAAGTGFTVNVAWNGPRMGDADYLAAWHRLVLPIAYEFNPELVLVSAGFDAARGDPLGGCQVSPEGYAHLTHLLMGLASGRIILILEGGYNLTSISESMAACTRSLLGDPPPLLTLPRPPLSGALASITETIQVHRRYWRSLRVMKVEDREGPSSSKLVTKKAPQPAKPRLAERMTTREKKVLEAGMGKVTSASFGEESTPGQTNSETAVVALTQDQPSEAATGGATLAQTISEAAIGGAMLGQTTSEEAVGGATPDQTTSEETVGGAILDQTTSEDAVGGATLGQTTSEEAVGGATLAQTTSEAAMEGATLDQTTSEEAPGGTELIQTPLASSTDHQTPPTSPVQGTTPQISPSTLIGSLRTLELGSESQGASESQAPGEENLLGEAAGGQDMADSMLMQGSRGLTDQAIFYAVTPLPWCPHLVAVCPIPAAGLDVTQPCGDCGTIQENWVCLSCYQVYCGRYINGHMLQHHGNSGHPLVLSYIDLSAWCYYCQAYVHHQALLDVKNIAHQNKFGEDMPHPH

[3] = system: mature stage V P. falciparum gametocytes; test: Gametocytocidal activity; assay type: cell-based; conditions: Plasmodium falciparum, NF54, 48 h, read-out: Pf stage V gametocytes IC50
[4] = Plasmodium falciparum, 3D7, read-out: IC50 (Pf3D7)
[5] = Plasmodium falciparum, 3D7, read-out: IC50 (Pf3D7), asexual intraerythrocytic stage P. falciparum 3D7

Chain of human HDAC1 (hHDAC1) (Q13547 whole entry): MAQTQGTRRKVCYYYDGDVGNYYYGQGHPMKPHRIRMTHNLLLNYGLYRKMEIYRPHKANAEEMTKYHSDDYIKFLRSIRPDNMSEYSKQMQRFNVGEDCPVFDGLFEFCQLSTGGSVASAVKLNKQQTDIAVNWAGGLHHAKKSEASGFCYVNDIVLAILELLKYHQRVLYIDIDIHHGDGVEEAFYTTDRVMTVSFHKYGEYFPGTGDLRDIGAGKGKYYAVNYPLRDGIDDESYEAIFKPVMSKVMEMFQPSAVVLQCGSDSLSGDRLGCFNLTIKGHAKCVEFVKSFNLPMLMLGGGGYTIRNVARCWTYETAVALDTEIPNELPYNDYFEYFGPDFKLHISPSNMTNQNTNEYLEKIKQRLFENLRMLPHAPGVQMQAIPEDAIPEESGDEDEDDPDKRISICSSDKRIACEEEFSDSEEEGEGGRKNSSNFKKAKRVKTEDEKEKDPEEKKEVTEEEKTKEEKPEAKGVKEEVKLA

## CC(C)c1ccc(C(=O)N(CC(=O)NC2CCCCC2)c2ccc(C(=O)NO)cc2)cc1 [Compound 2a, N-(2-(cyclohexylamino)-2-oxoethyl)-N-(4-(hydroxycarbamoyl)phenyl)-4-isopropylbenzamid]
[1]
  Selectivity index (SI) = (mammalian cell IC50)/(Pb EEF IC50): 4
  IC50: 9700 nM
[2]; [4]
  IC50: 570 to 77700 nM

## CC(C)c1ccc(C(=O)N(CC(=O)NCc2ccccc2)Cc2ccc(C(=O)NO)cc2)cc1 [Compound 2h, N-(2-(Benzylamino)-2-oxoethyl)-N-(4-(hydroxycarbamoyl)benzyl)-4-isopropylbenzamide]
Human HDAC1 (hHDAC1)
  IC50: 19 nM
[1]
  Selectivity index (SI) = (mammalian cell IC50)/(Pb EEF IC50): 289
  IC50: 16 nM
HepG2 cells
  IC50: 5000 to 13000 nM
[2]
  Selectivity index (SI) = (mammalian cell IC50)/(P. falciparum IC50): 889–1483 and 889
[2]; [5]
  IC50: 5.2 to 8.8 nM
[2]; read-out: IC50 (Pf3D7), asexual intraerythrocytic stage P. falciparum 3D7
  IC50: 5.2 nM
Human HDAC6 (hHDAC6)
  IC50: 51 nM
  Selectivity index (SI) = hHDAC1/hHDAC6: <1

## CNC(=O)CN(Cc1ccc(C(=O)NO)cc1)C(=O)c1ccccc1C [Compound 2t, N-(4-(Hydroxycarbamoyl)benzyl)-2-methyl-N-(2-(methylamino)-2-oxoethyl)benzamide]
Human HDAC1 (hHDAC1)
  IC50: 2010 nM
[1]
  Selectivity index (SI) = (mammalian cell IC50)/(Pb EEF IC50): >2
  IC50: 28000 nM
HepG2 cells
  IC50: > 50000 nM
[2]
  Selectivity index (SI) = (mammalian cell IC50)/(P. falciparum IC50): > 704
[2]; [5]
  IC50: 54 to 120 nM
Human HDAC6 (hHDAC6)
  IC50: 32 nM
  Selectivity index (SI) = hHDAC1/hHDAC6: 63

## CN(C)c1ccc(C(=O)N(Cc2ccc(C(=O)NO)cc2)C(C(=O)NC2CCCCC2)c2ccccc2)cc1 (racemic) [Compound 2d, rac-N-(2-(Cyclohexylamino)-2-oxo-1-phenylethyl)-4-(dimethylamino)-N-(4-(hydroxycarbamoyl)benzyl)benzamide]
Human HDAC1 (hHDAC1)
  IC50: 840 nM
[1]
  Selectivity index (SI) = (mammalian cell IC50)/(Pb EEF IC50): >3
  IC50: 19300 nM
HepG2 cells
  IC50: > 50000 nM
[3]
  IC50: 14800 nM
[2]; [5]
  IC50: 390 nM
Human HDAC6 (hHDAC6)
  IC50: 64 nM
  Selectivity index (SI) = hHDAC1/hHDAC6: 13

## Cc1cc(C)cc(C(=O)N(CC(=O)NC2CCCCC2)c2ccc(C(=O)NO)cc2)c1 [Compound 2b, N-(2-(cyclohexylamino)-2-oxoethyl)-N-(4-(hydroxycarbamoyl)phenyl)-3,5-dimethylbenzamide]
[1]
  Selectivity index (SI) = (mammalian cell IC50)/(Pb EEF IC50): 2
  IC50: 20200 nM
[2]; [4]
  IC50: 570 to 77700 nM

## Cc1cc(C)cc(C(=O)N(CC(=O)NCc2ccccc2)Cc2ccc(C(=O)NO)cc2)c1 [Compound 2j, N-(2-(Benzylamino)-2-oxoethyl)-N-(4-(hydroxycarbamoyl)benzyl)-3,5-dimethylbenzamide]
[1]
  Selectivity index (SI) = (mammalian cell IC50)/(Pb EEF IC50): 131
  IC50: 73 nM
HepG2 cells
  IC50: 9570 nM
[2]
  Selectivity index (SI) = (mammalian cell IC50)/(P. falciparum IC50): 259
[2]; [4]
  IC50: 37 nM

## Cc1cc(C)cc(C(=O)N(CC(=O)NCc2ccc(F)cc2)Cc2ccc(C(=O)NO)cc2)c1 [Compound 2m, N-(2-((4-Fluorobenzyl)amino)-2-oxoethyl)-N-(4-(hydroxycarbamoyl)benzyl)-3,5-dimethylbenzamide]
[1]
  Selectivity index (SI) = (mammalian cell IC50)/(Pb EEF IC50): 185
  IC50: 110 nM

## Cc1cc(C)cc(C(=O)N(CC(=O)NCc2ccc(Cl)cc2)Cc2ccc(C(=O)NO)cc2)c1 [Compound 2n, N-(2-((4-Chlorobenzyl)amino)-2-oxoethyl)-N-(4-(hydroxycarbamoyl)benzyl)-3,5-dimethylbenzamide]
[1]
  Selectivity index (SI) = (mammalian cell IC50)/(Pb EEF IC50): 21
  IC50: 1000 nM

## Cc1ccccc1C(=O)N(CC(=O)NC(C)(C)C)Cc1ccc(C(=O)NO)cc1 [Compound 2e, N-(2-(tert-Butylamino)-2-oxoethyl)-N-(4-(hydroxycarbamoyl)benzyl)-2-methylbenzamide]
[1]
  Selectivity index (SI) = (mammalian cell IC50)/(Pb EEF IC50): >5
  IC50: 9700 nM
HepG2 cells
  IC50: > 50000 nM
Human HDAC6 (hHDAC6)
  Selectivity index (SI) = hHDAC1/hHDAC6: 47

## Cc1ccc(CNC(=O)CN(Cc2ccc(C(=O)NO)cc2)C(=O)c2cc(C)cc(C)c2)cc1 [Compound 2k, N-(4-(Hydroxycarbamoyl)benzyl)-3,5-dimethyl-N-(2-((4-methylbenzyl)amino)-2-oxoethyl)benzamide]
[1]
  Selectivity index (SI) = (mammalian cell IC50)/(Pb EEF IC50): 70
  IC50: 210 nM

## CC(C)(C)c1ccc(C(=O)N(CC(=O)NCc2ccccc2)Cc2ccc(C(=O)NO)cc2)cc1 [Compound 2g, N-(2-(Benzylamino)-2-oxoethyl)-4-(tert-butyl)-N-(4-(hydroxycarbamoyl)benzyl)benzamide]
Human HDAC1 (hHDAC1)
  IC50: 34 nM
[1]
  Selectivity index (SI) = (mammalian cell IC50)/(Pb EEF IC50): 23
  IC50: 580 nM
HepG2 cells
  IC50: 5000 to 13000 nM
[2]
  Selectivity index (SI) = (mammalian cell IC50)/(P. falciparum IC50): 889–1483
[2]; [4]
  IC50: 5.2 to 8.8 nM
Human HDAC6 (hHDAC6)
  IC50: 71 nM
  Selectivity index (SI) = hHDAC1/hHDAC6: <1

## CN(C)c1ccc(C(=O)N(CC(=O)NCc2ccccc2)Cc2ccc(C(=O)NO)cc2)cc1 [Compound 2i, N-(2-(Benzylamino)-2-oxoethyl)-4-(dimethylamino)-N-(4-(hydroxycarbamoyl)benzyl)benzamide]
Human HDAC1 (hHDAC1)
  IC50: 7.7 nM
[1]
  Selectivity index (SI) = (mammalian cell IC50)/(Pb EEF IC50): 28
  IC50: 22 nM
HepG2 cells
  IC50: 620 nM
[2]
  Selectivity index (SI) = (mammalian cell IC50)/(P. falciparum IC50): 64
Human HDAC6 (hHDAC6)
  Selectivity index (SI) = hHDAC1/hHDAC6: <1

## COc1ccccc1C(=O)N(CC(=O)NC(C)(C)C)Cc1ccc(C(=O)NO)cc1 [Compound 2f, N-(2-(tert-Butylamino)-2-oxoethyl)-N-(4-(hydroxycarbamoyl)benzyl)-2-methoxybenzamide]
[1]
  Selectivity index (SI) = (mammalian cell IC50)/(Pb EEF IC50): >2
  IC50: 26700 nM
HepG2 cells
  IC50: > 50000 nM
[2]; [5]
  IC50: 110 to 250 nM
Human HDAC6 (hHDAC6)
  Selectivity index (SI) = hHDAC1/hHDAC6: 82

## Cc1cc(C)cc(CNC(=O)CN(Cc2ccc(C(=O)NO)cc2)C(=O)c2cc(C)cc(C)c2)c1 [Compound 2p, N-(2-((3,5-Dimethylbenzyl)amino)-2-oxoethyl)-N-(4-(hydroxycarbamoyl)benzyl)-3,5-dimethylbenzamide]
[1]
  Selectivity index (SI) = (mammalian cell IC50)/(Pb EEF IC50): 35
  IC50: 580 nM
[3]
  IC50: 5270 nM

## COc1ccc(CNC(=O)CN(Cc2ccc(C(=O)NO)cc2)C(=O)c2cc(C)cc(C)c2)cc1 [Compound 2l, N-(4-(Hydroxycarbamoyl)benzyl)-N-(2-((4-methoxybenzyl)amino)-2-oxoethyl)-3,5-dimethylbenzamide]
[1]
  Selectivity index (SI) = (mammalian cell IC50)/(Pb EEF IC50): 34
  IC50: 570 nM
[3]
  IC50: 10200 nM

## Cc1cc(C)cc(C(=O)N(CC(=O)NCc2cccnc2)Cc2ccc(C(=O)NO)cc2)c1 [Compound 2r, N-(4-(Hydroxycarbamoyl)benzyl)-3,5-dimethyl-N-(2-oxo-2-((pyridin-3-ylmethyl)amino)ethyl)benzamide]
[1]
  Selectivity index (SI) = (mammalian cell IC50)/(Pb EEF IC50): 3
  IC50: 16700 nM
HepG2 cells
  IC50: 41900 nM
[2]
  Selectivity index (SI) = (mammalian cell IC50)/(P. falciparum IC50): 530
[2]; [4]
  IC50: 79 nM

## Cc1cccc(CNC(=O)CN(Cc2ccc(C(=O)NO)cc2)C(=O)c2cc(C)cc(C)c2)c1 [Compound 2q, N-(4-(Hydroxycarbamoyl)benzyl)-3,5-dimethyl-N-(2-((3-methylbenzyl)amino)-2-oxoethyl)benzamide]
[1]
  Selectivity index (SI) = (mammalian cell IC50)/(Pb EEF IC50): 157
  IC50: 130 nM

## Cc1cc(C)cc(C(=O)N(CC(=O)NCc2ccc(C(C)(C)C)cc2)Cc2ccc(C(=O)NO)cc2)c1 [Compound 2o, N-(2-((4-(tert-Butyl)benzyl)amino)-2-oxoethyl)-N-(4-(hydroxycarbamoyl)benzyl)-3,5-dimethylbenzamide]
[1]
  Selectivity index (SI) = (mammalian cell IC50)/(Pb EEF IC50): 2
  IC50: 16600 nM

## CCN(CC)CCCC(C)Nc1ccnc2cc(Cl)ccc12 (stereo not drawn) [chloroquine, reference compound]
[2]; [4]
  IC50: 6.8 nM

— article PMC6502651 (ChemMedChem, 2019)
